The results in this text go back to PubChem BioAssay (NCI).

Test systems include M14 melanoma; OVCAR-5 ovarian; U251 CNS; NCI-H226 lung; SW-620 colon; SN12C renal; UACC-257 melanoma; LOX IMVI melanoma; SK-MEL-2 melanoma; NCI-H460 lung.
What all share (assay): NCI-60 cell line screen, 48 h

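These data come from cells grown in 96-well plates and exposed to compound for 48 hours at five concentrations. GI50 is the concentration that inhibits growth by half. The concentration for full growth arrest is given as TGI.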 A value given as a limit tells only on which side of the number the result lay.

With `C[C@]12Cc3conc3C(O)=C1CC[C@@H]1C2CC[C@@]2(C)C1CC[C@@H]2O` (some centres undefined), the TGI in the assay with M14 melanoma is 50 µM; in the assay on OVCAR-5 ovarian, > 100 µM; in the assay on U251 CNS, 64.4 µM; in the assay with NCI-H226 lung it was 56.8 µM; in the assay on SW-620 colon it was > 100 µM; with SN12C renal, > 100 µM. The TGI in the assay on UACC-257 melanoma is > 100 µM; with LOX IMVI melanoma, 24.9 µM; with SK-MEL-2 melanoma, 21.4 µM; in the assay with NCI-H460 lung, 40.7 µM.
On to `Clc1cc(Br)ccc1-c1ccc(CNCC2CCNCC2)o1`, for which the GI50 was 1.85 µM in the assay with M14 melanoma; 1.89 µM in the assay on OVCAR-5 ovarian; 2.17 µM in the assay with U251 CNS; 2.3 µM in the assay on NCI-H226 lung; 1.85 µM in the assay on SW-620 colon; 2.23 µM in the assay on SN12C renal. In addition, the GI50 is 1.85 µM in the assay with UACC-257 melanoma, 1.86 µM in the assay with LOX IMVI melanoma, 1.75 µM in the assay on SK-MEL-2 melanoma and 1.87 µM in the assay with NCI-H460 lung. Besides, the TGI in the assay on M14 melanoma amounted to 3.7 µM; with OVCAR-5 ovarian it was 3.93 µM; in the assay on U251 CNS, 4.03 µM; in the assay on NCI-H226 lung, 6.25 µM; in the assay on SW-620 colon it was 3.72 µM; with SN12C renal it was 7.69 µM. In addition, the TGI with UACC-257 melanoma is 3.51 µM; with LOX IMVI melanoma, 3.7 µM; with SK-MEL-2 melanoma it was 3.53 µM; in the assay on NCI-H460 lung it was 3.72 µM.
For the compound `CCOC(=O)Cc1csc(NC(=O)C(OC(=O)c2ccc(Cl)cc2)c2ccccc2)n1` (centres undefined), the GI50 was 22.1 µM in the assay on M14 melanoma; 38.5 µM with OVCAR-5 ovarian; 45.3 µM in the assay with U251 CNS; 54.4 µM with NCI-H226 lung; 48.4 µM in the assay on SW-620 colon; 37.8 µM with SN12C renal. Further, the GI50 with UACC-257 melanoma was 41.3 µM; in the assay with LOX IMVI melanoma it was 33.6 µM; in the assay on SK-MEL-2 melanoma it was 23.8 µM; in the assay on NCI-H460 lung, 36.1 µM. The TGI in the assay with M14 melanoma was 52 µM; in the assay with OVCAR-5 ovarian, > 100 µM; in the assay on U251 CNS, > 100 µM; in the assay with NCI-H226 lung it was > 100 µM; in the assay on SW-620 colon, > 100 µM; in the assay on SN12C renal it was > 100 µM. The TGI with UACC-257 melanoma is > 100 µM; in the assay on LOX IMVI melanoma it was > 100 µM; with SK-MEL-2 melanoma it was 50.7 µM; with NCI-H460 lung, > 100 µM.
Regarding `CCCCN(CCCC)P(=O)(Oc1ccccc1)Oc1ccccc1`, the GI50 was 11.6 µM with M14 melanoma; 13.3 µM in the assay with OVCAR-5 ovarian; 5.59 µM in the assay on U251 CNS; 10.4 µM with NCI-H226 lung; 5.41 µM with SW-620 colon; 5.53 µM in the assay on SN12C renal. Also, the GI50 is 8.04 µM in the assay on UACC-257 melanoma, 12.9 µM in the assay on LOX IMVI melanoma, 11.8 µM in the assay with SK-MEL-2 melanoma and 5.24 µM in the assay with NCI-H460 lung. The TGI worked out at 25.6 µM in the assay on M14 melanoma; 28.3 µM in the assay on OVCAR-5 ovarian; 19.1 µM in the assay with U251 CNS; 25.4 µM in the assay with NCI-H226 lung; 19.4 µM with SW-620 colon; 19.7 µM in the assay with SN12C renal. The TGI in the assay with UACC-257 melanoma came to 22.4 µM; in the assay on LOX IMVI melanoma, 26.5 µM; in the assay with SK-MEL-2 melanoma, 28 µM; in the assay with NCI-H460 lung it was 18.9 µM.
In the case of `COc1cc(CSc2nc3ccc(Cl)cc3c(=O)n2Cc2ccccc2)cc(OC)c1OC`, the GI50 was 4.26 µM with M14 melanoma; 7 µM in the assay with OVCAR-5 ovarian; 4.36 µM in the assay with U251 CNS; 12.3 µM in the assay with NCI-H226 lung; 2.65 µM in the assay on SW-620 colon; 5.2 µM in the assay on SN12C renal. Also, the GI50 in the assay on UACC-257 melanoma was 8.47 µM; with LOX IMVI melanoma, 5.97 µM; in the assay with SK-MEL-2 melanoma it was 6.57 µM; in the assay on NCI-H460 lung it was 3.33 µM. Also, the TGI was > 100 µM with M14 melanoma; > 100 µM with OVCAR-5 ovarian; 35.7 µM with U251 CNS; > 100 µM with NCI-H226 lung; > 100 µM in the assay with SW-620 colon; > 100 µM with SN12C renal. In addition, the TGI in the assay on UACC-257 melanoma is > 100 µM; with LOX IMVI melanoma, > 100 µM; with SK-MEL-2 melanoma, 59.4 µM; with NCI-H460 lung it was > 100 µM.
Take `c1cc(OCCN2CCCC2)ccc1CNc1ccc2nc(CCC3CCCCC3)[nH]c2c1`: the GI50 in the assay with M14 melanoma was 1.6 µM; with OVCAR-5 ovarian, 2.19 µM; in the assay on U251 CNS, 1.41 µM; in the assay with NCI-H226 lung it was 1.51 µM; in the assay with SW-620 colon, 1.85 µM; in the assay on SN12C renal it was 2.08 µM. Moreover, the GI50 in the assay with UACC-257 melanoma was 1.83 µM; in the assay with LOX IMVI melanoma, 1.67 µM; with SK-MEL-2 melanoma, 1.84 µM; with NCI-H460 lung it was 2.13 µM. Further, the TGI came out at 3.23 µM with M14 melanoma; 6.59 µM with OVCAR-5 ovarian; 3.16 µM with U251 CNS; 3.6 µM with NCI-H226 lung; 3.96 µM in the assay on SW-620 colon; 8.21 µM with SN12C renal. Moreover, the TGI with UACC-257 melanoma stood at 4.04 µM; in the assay with LOX IMVI melanoma, 3.11 µM; with SK-MEL-2 melanoma, 3.55 µM; in the assay on NCI-H460 lung it was 4.87 µM.
As to `COc1cc2c(cc1OC)[C@@H]1C(=O)c3ccc4c(c3O[C@@H]1CO2)C[C@H](C(C)C)O4`, the GI50 in the assay on M14 melanoma was 7.86 µM; with OVCAR-5 ovarian it was 29.1 µM; in the assay on U251 CNS it was 4.57 µM; in the assay on NCI-H226 lung it was 8.89 µM; with SW-620 colon, 9.05 µM; in the assay on SN12C renal, 10.6 µM. Moreover, the GI50 is 4.19 µM in the assay on UACC-257 melanoma, 0.264 µM with LOX IMVI melanoma, 18.5 µM in the assay with SK-MEL-2 melanoma and 4.33 µM with NCI-H460 lung. Further, the TGI in the assay on M14 melanoma is > 59.4 µM; in the assay with OVCAR-5 ovarian, > 100 µM; in the assay on U251 CNS, > 38.2 µM; in the assay on NCI-H226 lung it was > 100 µM; with SW-620 colon, > 46.7 µM; in the assay on SN12C renal, > 76.8 µM. The TGI with UACC-257 melanoma was > 57.7 µM; in the assay with SK-MEL-2 melanoma it was 57 µM; with NCI-H460 lung, 45.8 µM.
Consider `COC(=O)c1c2c(c(C)[n+]([O-])c1C)C(=O)C(NCc1ccccc1)=CC2=O`, for which the GI50 was 1.97 µM in the assay on M14 melanoma; 2.58 µM in the assay on OVCAR-5 ovarian; 2.46 µM with U251 CNS; 2.81 µM in the assay on NCI-H226 lung; 3.12 µM with SW-620 colon; 2.13 µM in the assay on SN12C renal. The GI50 was 1.7 µM in the assay on UACC-257 melanoma, 2.72 µM in the assay on LOX IMVI melanoma, 2.63 µM in the assay with SK-MEL-2 melanoma and 2.74 µM with NCI-H460 lung. In addition, the TGI was 4.35 µM with M14 melanoma; 6.22 µM with OVCAR-5 ovarian; 7.11 µM in the assay with U251 CNS; 9.9 µM with NCI-H226 lung; 10.6 µM in the assay on SW-620 colon; 5.48 µM in the assay with SN12C renal. Moreover, the TGI in the assay with UACC-257 melanoma came to 4.02 µM; in the assay on LOX IMVI melanoma it was 10.2 µM; in the assay with SK-MEL-2 melanoma, 9.48 µM; in the assay on NCI-H460 lung it was 10.9 µM.
As for `COc1ccc(Nc2ncc(I)c(NCCCNC(=O)C3CCC3)n2)cc1`, the GI50 is 13.4 µM in the assay with M14 melanoma; 8.28 µM in the assay on OVCAR-5 ovarian; 2.08 µM in the assay on U251 CNS; 3.91 µM in the assay with NCI-H226 lung; 9.28 µM in the assay on SW-620 colon; 1.46 µM in the assay on SN12C renal. Besides, the GI50 was 15 µM with UACC-257 melanoma, 1.66 µM in the assay on LOX IMVI melanoma, 16.8 µM in the assay on SK-MEL-2 melanoma and 5.19 µM with NCI-H460 lung. Moreover, the TGI was > 100 µM with M14 melanoma; 68.5 µM in the assay on OVCAR-5 ovarian; 28.9 µM in the assay with U251 CNS; 67.1 µM in the assay with NCI-H226 lung; > 100 µM in the assay with SW-620 colon; > 100 µM in the assay on SN12C renal. The TGI with UACC-257 melanoma came out at 93 µM; in the assay on LOX IMVI melanoma, 13.6 µM; in the assay on SK-MEL-2 melanoma, 57.1 µM; in the assay with NCI-H460 lung, 36.8 µM.
For the compound `COc1ccc(O)c(/C=N\Nc2ccccc2)c1`, the TGI in the assay on M14 melanoma is 73.2 µM; in the assay on OVCAR-5 ovarian, > 100 µM; in the assay on U251 CNS it was > 100 µM; with NCI-H226 lung it was > 100 µM; with SW-620 colon, 22.6 µM; in the assay on SN12C renal, > 100 µM. The TGI was > 100 µM in the assay on UACC-257 melanoma, 13 µM in the assay with LOX IMVI melanoma, > 100 µM in the assay on SK-MEL-2 melanoma and > 100 µM with NCI-H460 lung.
Turning to `COc1ccc(Sc2[nH]c(C=O)c3ccccc23)cc1`, the GI50 in the assay with M14 melanoma is 12.4 µM; with OVCAR-5 ovarian it was 6.1 µM; in the assay on U251 CNS, 12.3 µM; with NCI-H226 lung, 2.62 µM; in the assay on SW-620 colon, 3.72 µM; in the assay with SN12C renal it was 14.9 µM. The GI50 in the assay on UACC-257 melanoma was 20.1 µM; with LOX IMVI melanoma, 12.3 µM; in the assay with SK-MEL-2 melanoma it was 13.6 µM; in the assay on NCI-H460 lung it was 2.94 µM. Moreover, the TGI was 26 µM in the assay on M14 melanoma; 28.3 µM in the assay with OVCAR-5 ovarian; 24.8 µM with U251 CNS; 16.8 µM in the assay on NCI-H226 lung; 16.4 µM in the assay with SW-620 colon; 33.1 µM in the assay with SN12C renal. For the same compound, the TGI worked out at 49.6 µM with UACC-257 melanoma, 25.4 µM with LOX IMVI melanoma, 32.4 µM in the assay with SK-MEL-2 melanoma and 11.2 µM in the assay with NCI-H460 lung.
Turning to `CC1(C)C(=O)/C=C\C(=O)C(C)(C)C2=CC=C(O2)C(C)(C)C(=O)C(Br)C(Br)C(=O)C(C)(C)C2=CC=C1O2` (centres undefined), the TGI with M14 melanoma is > 87 µM; with OVCAR-5 ovarian it was > 100 µM; with U251 CNS, > 81.8 µM; in the assay with NCI-H226 lung, > 100 µM; in the assay with SW-620 colon it was 31.1 µM; with SN12C renal, > 100 µM. Also, the TGI with UACC-257 melanoma was > 100 µM; in the assay on LOX IMVI melanoma it was > 59.6 µM; in the assay on SK-MEL-2 melanoma, > 100 µM; in the assay with NCI-H460 lung it was > 100 µM.
